Test results taken from patent publication US8771665B2 (Cocrystal Discovery, Inc., priority 2010, dated 2014).

Target: T1, HCV1b NS5B polymerase delta 21 (Hepatitis C virus genotype 1b, UniProt P26663)
T1 construct: purified HCV1b NS5B polymerase delta 21
Experiment: RNA-Dependent RNA HCV NS5B (Polymerase) Assay and IC50 Determination
Assay type: biochemical
Experimental: RNA-Dependent RNA HCV NS5B (Polymerase) Assay and IC50 Determination
In vitro RNA-dependent RNA polymerase activity was determined in a reaction mixture (50 μL) containing 50 mM Tris-HCl, pH 7.5, 5 mM MgCl2, 1 mM dithiothreitol, 0.5% Triton® X-100, 10 μM of UTP, 0.1-0.5 μCi of α-^32P UTP (Perkin Elmer Life Sciences), 1 μg of polyA:U16 (Midland Oligo), and 0.6 μg of purified HCV1b NS5B polymerase delta 21. Different concentrations of compounds were added to the reaction mixtures. The reaction was carried out at RT (23° C.) for 60 min and then stopped by the addition of 100 μL of 50 mM EDTA. The reaction mixtures were filtered through either a DE81 membrane or a positively charged nylon membrane, and the membranes were then extensively washed with 30 mM sodium citrate, pH 7.0 and 300 mM NaCl. The radiolabeled RNA products were quantitated using a Storm™ Phosphorlmager™ (GE Life Sciences). IC50 values were calculated using GraFit 6 and GraphPad Prism 5 from triplicate assays.

T1 sequence (P26663 2420-2989): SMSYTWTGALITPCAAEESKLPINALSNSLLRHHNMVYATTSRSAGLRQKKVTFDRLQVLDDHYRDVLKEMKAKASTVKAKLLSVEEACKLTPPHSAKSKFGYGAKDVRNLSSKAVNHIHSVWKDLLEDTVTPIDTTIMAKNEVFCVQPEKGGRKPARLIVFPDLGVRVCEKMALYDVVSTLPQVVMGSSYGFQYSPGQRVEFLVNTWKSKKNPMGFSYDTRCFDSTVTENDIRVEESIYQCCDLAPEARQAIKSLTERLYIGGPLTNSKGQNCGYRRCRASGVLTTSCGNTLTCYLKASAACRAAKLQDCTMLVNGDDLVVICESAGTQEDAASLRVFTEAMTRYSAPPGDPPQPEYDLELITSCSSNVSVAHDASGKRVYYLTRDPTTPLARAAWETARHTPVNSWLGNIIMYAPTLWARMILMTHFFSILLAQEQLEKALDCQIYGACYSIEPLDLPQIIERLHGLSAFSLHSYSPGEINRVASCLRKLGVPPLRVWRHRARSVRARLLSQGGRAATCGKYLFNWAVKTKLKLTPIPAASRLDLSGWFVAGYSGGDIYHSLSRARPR

CCN1CCC(c2cc(C#CCOC)sc2C(=O)O)=C(C2CCC(C)CC2)C1 (stereo not shown) [Example 034, 3-[1-Ethyl-5-(4-methyl-cyclohexyl)-1,2,3,6-tetrahydro-pyridin-4-yl]-5-(3-methoxy-prop-1-ynyl)-thiophene-2-carboxylic acid]
IC50: < 3 µM

CCN1CCC(c2cc(-c3ccc(C(=O)O)cc3)sc2C(=O)O)=C(C2CCC(C)CC2)C1 (stereo not shown) [Example 035, 5-(4-Carboxy-phenyl)-3-[1-ethyl-5-(4-methyl-cyclohexyl)-1,2,3,6-tetrahydro-pyridin-4-yl]-thiophene-2-carboxylic acid]
IC50: < 3 µM

Cc1ccc(S(=O)(=O)N2CCC(c3cc(-c4ccccc4)sc3C(=O)O)=C(C3CCC(C)CC3)C2)cc1 (stereo not shown) [Example 036, 3-[5-(4-Methyl-cyclohexyl)-1-(toluene-4-sulfonyl)-1,2,3,6-tetrahydro-pyridin-4-yl]-5-phenyl-thiophene-2-carboxylic acid]
IC50: > 10 µM

CC1CCC(C2=C(c3cc(-c4ccccc4)sc3C(=O)O)CCN(C(=O)OC(C)(C)C)C2)CC1 (stereo not shown) [Example 037, 4-(2-Carboxy-5-phenyl-thiophen-3-yl)-5-(4-methyl-cyclohexyl)-3,6-dihydro-2H-pyridine-1-carboxylic acid tert-butyl ester]
IC50: > 10 µM

CCOC(=O)N1CCC(c2cc(-c3ccccc3)sc2C(=O)O)=C(C2CCC(C)CC2)C1 (stereo not shown) [Example 038, 4-(2-Carboxy-5-phenyl-thiophen-3-yl)-5-(4-methyl-cyclohexyl)-3,6-dihydro-2H-pyridine-1-carboxylic acid ethyl ester]
IC50: > 10 µM

CC1CCC(C2=C(c3cc(-c4ccccc4)sc3C(=O)O)CCN(S(C)(=O)=O)C2)CC1 (stereo not shown) [Example 039, 3-[1-Methanesulfonyl-5-(4-methyl-cyclohexyl)-1,2,3,6-tetrahydro-pyridin-4-yl]-5-phenyl-thiophene-2-carboxylic acid]
IC50: > 10 µM

CC1CCC(C2=C(c3cc(-c4ccccc4)sc3C(=O)O)CCNC2)CC1 (stereo not shown) [Example 040, 3-[5-(4-Methyl-cyclohexyl)-1,2,3,6-tetrahydro-pyridin-4-yl]-5-phenyl-thiophene-2-carboxylic acid]
IC50: < 3 µM

CC1CCC(C2=C(c3cc(-c4ccccc4)sc3C(=O)O)CN(C)CC2)CC1 (stereo not shown) [Example 041, 3-[1-Methyl-4-(4-methyl-cyclohexyl)-1,2,5,6-tetrahydro-pyridin-3-yl]-5-phenyl-thiophene-2-carboxylic acid]
IC50: < 3 µM

CC1CCC(C2=C(c3cc(-c4ccc(NC(=O)c5ccccn5)cc4)sc3C(=O)O)CCN(C)C2)CC1 (stereo not shown) [Example 042, 3-[1-Methyl-5-(4-methyl-cyclohexyl)-1,2,3,6-tetrahydro-pyridin-4-yl]-5-{4-[(pyridine-2-carbonyl)-amino]-phenyl}-thiophene-2-carboxylic acid]
IC50: < 3 µM

CC1CCC(C2=C(c3cc(-c4ccccc4)sc3C(=O)O)CCN(Cc3ccccc3)C2)CC1 (stereo not shown) [Example 043, 3-[1-Benzyl-5-(4-methyl-cyclohexyl)-1,2,3,6-tetrahydro-pyridin-4-yl]-5-phenyl-thiophene-2-carboxylic acid]
IC50: 3 to 10 µM

CCN1CCC(c2cc(-c3ccccc3)sc2C(=O)O)=C(C2CCC(C)CC2)C1 (stereo not shown) [Example 044, 3-[1-Ethyl-5-(4-methyl-cyclohexyl)-1,2,3,6-tetrahydro-pyridin-4-yl]-5-phenyl-thiophene-2-carboxylic acid]
IC50: < 3 µM

CC1CCC(C2=C(c3cc(-c4ccccc4)sc3C(=O)O)CCN(C(=O)c3cnccn3)C2)CC1 (stereo not shown) [Example 045, 3-[5-(4-Methyl-cyclohexyl)-1-(pyrazine-2-carbonyl)-1,2,3,6-tetrahydro-pyridin-4-yl]-5-phenyl-thiophene-2-carboxylic acid]
IC50: < 3 µM

CN1CCC(c2cc(C#CC(C)(C)C)sc2C(=O)O)=C([C@H]2CC[C@H](C)CC2)C1 [Example 046, 5-(3,3-Dimethyl-but-1-ynyl)-3-[1-methyl-5-(4-methyl-cyclohexyl)-1,2,3,6-tetrahydro-pyridin-4-yl]-thiophene-2-carboxylic acid]
IC50: < 3 µM

CN1CCC(c2cc(-c3ccc(NC(=O)c4cscn4)cc3)sc2C(=O)O)=C([C@H]2CC[C@H](C)CC2)C1 [Example 047, 3-[1-Methyl-5-(4-methyl-cyclohexyl)-1,2,3,6-tetrahydro-pyridin-4-yl]-5-{4-[(thiazole-4-carbonyl)-amino]-phenyl}-thiophene-2-carboxylic acid]
IC50: < 3 µM

CCN1CCC(c2cc(-c3ccc(NC(=O)c4csc(C)n4)cc3)sc2C(=O)O)=C(C2CCC(C)CC2)C1 (stereo not shown) [Example 048, 3-[1-Ethyl-5-(4-methyl-cyclohexyl)-1,2,3,6-tetrahydro-pyridin-4-yl]-5-{4-[(2-methyl-thiazole-4-carbonyl)-amino]-phenyl}-thiophene-2-carboxylic acid]
IC50: < 3 µM

CCN1CCC(c2cc(-c3ccc(NC(=O)c4ccsc4)cc3)sc2C(=O)O)=C(C2CCC(C)CC2)C1 (stereo not shown) [Example 049, 3-[1-Ethyl-5-(4-methyl-cyclohexyl)-1,2,3,6-tetrahydro-pyridin-4-yl]-5-{4-[(thiophene-3-carbonyl)-amino]-phenyl}-thiophene-2-carboxylic acid]
IC50: < 3 µM

CCN1CCC(c2cc(-c3ccc(NC(=O)c4cncs4)cc3)sc2C(=O)O)=C(C2CCC(C)CC2)C1 (stereo not shown) [Example 050, 3-[1-Ethyl-5-(4-methyl-cyclohexyl)-1,2,3,6-tetrahydro-pyridin-4-yl]-5-{4-[(thiazole-5-carbonyl)-amino]-phenyl}-thiophene-2-carboxylic acid]
IC50: 3 to 10 µM

CCN1CCC(c2cc(-c3ccc(NC(=O)c4cc(C)n(C)n4)cc3)sc2C(=O)O)=C(C2CCC(C)CC2)C1 (stereo not shown) [Example 051, 5-{4-[(1,5-Dimethyl-1H-pyrazole-3-carbonyl)-amino]-phenyl}-3-[1-ethyl-5-(4-methyl-cyclohexyl)-1,2,3,6-tetrahydro-pyridin-4-yl]-thiophene-2-carboxylic acid]
IC50: < 3 µM

CCN1CCC(c2cc(-c3ccc(NC(=O)c4cocn4)cc3)sc2C(=O)O)=C(C2CCC(C)CC2)C1 (stereo not shown) [Example 052, 3-[1-Ethyl-5-(4-methyl-cyclohexyl)-1,2,3,6-tetrahydro-pyridin-4-yl]-5-{4-[(oxazole-4-carbonyl)-amino]-phenyl}-thiophene-2-carboxylic acid]
IC50: < 3 µM

CCN1CCC(c2cc(-c3ccc(NC(=O)c4cc(C)on4)cc3)sc2C(=O)O)=C(C2CCC(C)CC2)C1 (stereo not shown) [Example 053, 3-[1-Ethyl-5-(4-methyl-cyclohexyl)-1,2,3,6-tetrahydro-pyridin-4-yl]-5-{4-[(5-methyl-isoxazole-3-carbonyl)-amino]-phenyl}-thiophene-2-carboxylic acid]
IC50: 3 to 10 µM

CCN1CCC(c2cc(-c3ccc(NC(=O)c4ccco4)cc3)sc2C(=O)O)=C(C2CCC(C)CC2)C1 (stereo not shown) [Example 054, 3-[1-Ethyl-5-(4-methyl-cyclohexyl)-1,2,3,6-tetrahydro-pyridin-4-yl]-5-{4-[(furan-2-carbonyl)-amino]-phenyl}-thiophene-2-carboxylic acid]
IC50: < 3 µM

CCN1CCC(c2cc(-c3ccc(NC(=O)c4cc[nH]n4)cc3)sc2C(=O)O)=C(C2CCC(C)CC2)C1 (stereo not shown) [Example 055, 3-[1-Ethyl-5-(4-methyl-cyclohexyl)-1,2,3,6-tetrahydro-pyridin-4-yl]-5-{4-[(1H-pyrazole-3-carbonyl)-amino]-phenyl}-thiophene-2-carboxylic acid]
IC50: < 3 µM

CCN1CCC(c2cc(-c3ccc(NC(=O)c4cn[nH]c4)cc3)sc2C(=O)O)=C(C2CCC(C)CC2)C1 (stereo not shown) [Example 056, 3-[1-Ethyl-5-(4-methyl-cyclohexyl)-1,2,3,6-tetrahydro-pyridin-4-yl]-5-{4-[(1H-pyrazole-4-carbonyl)-amino]-phenyl}-thiophene-2-carboxylic acid]
IC50: 3 to 10 µM

CCN1CCC(c2cc(-c3ccc(NC(=O)c4cn(C)cn4)cc3)sc2C(=O)O)=C(C2CCC(C)CC2)C1 (stereo not shown) [Example 057, 3-[1-Ethyl-5-(4-methyl-cyclohexyl)-1,2,3,6-tetrahydro-pyridin-4-yl]-5-{4-[(1-methyl-1H-imidazole-4-carbonyl)-amino]-phenyl}-thiophene-2-carboxylic acid]
IC50: < 3 µM

CCN1CCC(c2cc(-c3ccc(NC(=O)C4CCCO4)cc3)sc2C(=O)O)=C(C2CCC(C)CC2)C1 (stereo not shown) [Example 058, 3-[1-Ethyl-5-(4-methyl-cyclohexyl)-1,2,3,6-tetrahydro-pyridin-4-yl]-5-{4-[(tetrahydro-furan-2-carbonyl)-amino]-phenyl}-thiophene-2-carboxylic acid]
IC50: < 3 µM

CC1CCC(C2=C(c3cc(-c4ccc(NC(=O)c5cscn5)c(F)c4)sc3C(=O)O)CCN(C)C2)CC1 (stereo not shown) [Example 059, 5-{3-Fluoro-4-[(thiazole-4-carbonyl)-amino]-phenyl}-3-[1-methyl-5-(4-methyl-cyclohexyl)-1,2,3,6-tetrahydro-pyridin-4-yl]-thiophene-2-carboxylic acid]
IC50: < 3 µM

CC1CCC(C2=C(c3cc(-c4ccc(NC(=O)c5cscn5)cc4F)sc3C(=O)O)CCN(C)C2)CC1 (stereo not shown) [Example 060, 5-{2-Fluoro-4-[(thiazole-4-carbonyl)-amino]-phenyl}-3-[1-methyl-5-(4-methyl-cyclohexyl)-1,2,3,6-tetrahydro-pyridin-4-yl]-thiophene-2-carboxylic acid]
IC50: < 3 µM

CCN1CCC(c2cc(-c3ccc(NCc4cscn4)cc3)sc2C(=O)O)=C(C2CCC(C)CC2)C1 (stereo not shown) [Example 061, 3-[1-Ethyl-5-(4-methyl-cyclohexyl)-1,2,3,6-tetrahydro-pyridin-4-yl]-5-{4-[(thiazol-4-ylmethyl)-amino]-phenyl}-thiophene-2-carboxylic acid]
IC50: > 10 µM
